Test results as given in ChEMBL document CHEMBL4610061, “Identification of novel GPR81 agonist lead series for target biology evaluation” (Bioorg Med Chem Lett, 2020).
≈ marks a conversion by molar mass, not a printed value. Calls of active or inactive are those of the source. No cut-off for these calls is given here.

Assays:
[1] = Distribution coefficient, logD of compound at pH 7.4; assay type: physicochemical; settings: octanol/water
[2] = target: T1, Hydroxycarboxylic acid receptor 1 (Homo sapiens, UniProt Q9BXC0); assay: Agonist activity at human GPR81 overexpressed in CHO cells assessed as inhibition of forskolin-stimulated cAMP production; assay type: functional, cell-based
T1 sequence (Q9BXC0 whole entry): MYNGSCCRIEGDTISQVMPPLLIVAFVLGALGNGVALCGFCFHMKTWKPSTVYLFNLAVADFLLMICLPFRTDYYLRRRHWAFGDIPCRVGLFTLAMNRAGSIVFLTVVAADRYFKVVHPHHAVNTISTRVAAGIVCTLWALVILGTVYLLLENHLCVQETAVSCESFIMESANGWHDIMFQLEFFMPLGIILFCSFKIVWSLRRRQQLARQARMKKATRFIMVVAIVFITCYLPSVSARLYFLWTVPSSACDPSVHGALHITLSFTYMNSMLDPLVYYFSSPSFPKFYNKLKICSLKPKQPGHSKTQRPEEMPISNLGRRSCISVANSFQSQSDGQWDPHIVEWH

[3] = target: T1, Hydroxycarboxylic acid receptor 1; assay: Agonist activity at human GPR81 overexpressed in CHO cells assessed as inhibition of forskolin-stimulated cAMP production at 10 uM relative to control; assay type: functional, cell-based
[4] = Solubility of compound; assay type: physicochemical
[5] = target: Growth hormone secretagogue receptor type 1 (Homo sapiens, UniProt Q92847); assay: Displacement of [125I]-ghrelin from human GHS-R1a stably expressed in HEK cell membrane measured after 60 mins by gamma counter method; assay type: cell membranes
Growth hormone secretagogue receptor type 1, sequence (Q92847 whole entry): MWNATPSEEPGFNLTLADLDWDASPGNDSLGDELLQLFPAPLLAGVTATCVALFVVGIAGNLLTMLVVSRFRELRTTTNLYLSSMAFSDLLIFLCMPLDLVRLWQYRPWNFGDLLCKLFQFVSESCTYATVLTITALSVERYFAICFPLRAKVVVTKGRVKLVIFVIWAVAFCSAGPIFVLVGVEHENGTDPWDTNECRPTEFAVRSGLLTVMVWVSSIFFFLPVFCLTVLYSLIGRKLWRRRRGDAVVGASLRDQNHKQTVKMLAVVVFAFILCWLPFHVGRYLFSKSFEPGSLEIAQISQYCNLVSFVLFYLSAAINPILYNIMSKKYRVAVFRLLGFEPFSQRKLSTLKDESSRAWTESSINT

[6] = target: Hydroxycarboxylic acid receptor 2 (Homo sapiens, UniProt Q8TDS4); assay: Agonist activity at human GPR109A receptor
Hydroxycarboxylic acid receptor 2, sequence (Q8TDS4 whole entry): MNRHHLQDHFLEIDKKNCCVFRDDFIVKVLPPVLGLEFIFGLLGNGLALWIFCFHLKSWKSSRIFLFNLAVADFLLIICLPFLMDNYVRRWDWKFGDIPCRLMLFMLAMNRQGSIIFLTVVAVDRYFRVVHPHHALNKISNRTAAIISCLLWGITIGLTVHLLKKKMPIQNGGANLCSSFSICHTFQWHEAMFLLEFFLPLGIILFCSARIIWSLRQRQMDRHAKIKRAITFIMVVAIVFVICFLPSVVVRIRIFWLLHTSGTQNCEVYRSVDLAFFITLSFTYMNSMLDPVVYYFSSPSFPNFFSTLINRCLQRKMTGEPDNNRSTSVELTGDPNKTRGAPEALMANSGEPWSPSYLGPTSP

Homo sapiens = species on record: Homo sapiens; assay: Selectivity index, ratio of IC50 for displacement of [125I]-ghrelin from human GHS-R1a stably expressed in HEK cell membrane measured after 60 mins by gamma counter method to EC50 for agonist activity at human GPR81 overexpressed in CHO cells assessed as inhibition of forskolin-stimulated cAMP production; assay type: cell membranes
[7] = target: T2, Protein Gpr81 (Rattus norvegicus) (UniProt G3V906); assay: Agonist activity at rat GPR81 overexpressed in HEK293 cells by [35S]GTPgammaS binding assay; assay type: cell-based
T2 sequence (whole entry): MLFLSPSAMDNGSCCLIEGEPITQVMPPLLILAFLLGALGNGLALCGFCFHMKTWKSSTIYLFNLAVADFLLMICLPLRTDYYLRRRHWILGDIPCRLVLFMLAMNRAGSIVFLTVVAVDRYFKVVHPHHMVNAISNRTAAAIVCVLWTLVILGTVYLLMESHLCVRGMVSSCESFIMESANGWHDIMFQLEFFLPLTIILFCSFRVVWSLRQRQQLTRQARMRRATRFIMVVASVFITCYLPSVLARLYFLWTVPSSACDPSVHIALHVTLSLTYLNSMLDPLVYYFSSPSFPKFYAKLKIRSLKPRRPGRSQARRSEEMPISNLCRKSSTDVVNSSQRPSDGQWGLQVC

logD [1] | EC50 [2] [nM] | Efficacy [3] [%] | solubility [4] [µM] | IC50 [5] [nM] | EC50 [6] [nM] | Activity [7] | SMILES | Ratio IC50/EC50 (Homo sapiens)
3.4 | 560 |  |  |  |  |  | CCOc1ccc(C(=O)NC(=O)Nc2nc3ccc(CN4CCN(C)CC4)cc3s2)c(Cl)c1 | 
4 | 299 |  |  |  |  |  | CCOc1cc(Cl)c(C(=O)NC(=O)Nc2nc3ccccc3s2)cc1N1CCOCC1 | 
2.5 | 6100 | 70 |  |  |  |  | Cc1cc(Cl)c(C(=O)NC(=O)Nc2nc3ccc(S(=O)(=O)C4CCN(C)CC4)cc3s2)cc1-n1cccn1 | 
2.3 | 719 |  |  |  |  |  | CCOc1cc(Cl)c(C(=O)NC(=O)Nc2nc3c(s2)CN(C(C)=O)CC3)cc1N1CCOCC1 | 
 | 120 |  |  |  |  |  | CCOc1cc(Cl)c(C(=O)NC(=O)Nc2nc3c(s2)CCCC3)cc1N1CCOCC1 | 
2.9 | > 3700 |  |  |  |  |  | CCOc1cc(C)c(C(=O)NC(=O)Nc2nc3ccc(CN4CCN(C)CC4)cc3s2)cc1N1CCOCC1 | 
2.2 | 166 |  |  |  |  |  | CCOc1cc(Cl)c(C(=O)NC(=O)Nc2nc3ccc(S(=O)(=O)C4CCN(C)CC4)cc3s2)cc1N1CCOCC1 | 
3 | 740 | 47 |  |  |  |  | CCOc1ccc(C(=O)NC(=O)Nc2nc3ccc(CN4CCN(C)CC4)cc3s2)cc1N1CCOCC1 | 
 | > 33000 |  | 20 (≈ 10.9 µg/mL) | > 50000 |  |  | CCOc1cc(Cl)c(NC(=O)Nc2nc3ccc(CN4CCN(C)CC4)cc3s2)cc1N1CCOCC1 | 
2.9 | 110 |  | 5 (≈ 2.66 µg/mL) | > 30000 | 1600 |  | CCOc1cc(Cl)c(C(=O)Nc2nc3ccc(OC4CCN(C)CC4)cc3s2)cc1N1CCOCC1 | > 80
3.9 | 490 |  | < 0.31 | 5200 | > 22000 |  | CCOc1cc(Cl)c(-c2ncc(-c3nc4ccccc4s3)c(=O)[nH]2)cc1N1CCOCC1 | 
2.4 | 22 |  | 7 (≈ 3.72 µg/mL) | 1900 | 910 |  | CCOc1cc(Cl)c(-c2ccc(-c3nc4c(s3)CN(C(=O)CO)CC4)c(=O)[nH]2)cc1N1CCOCC1 | 
3.2 | 769 |  |  |  |  |  | CCOc1cc(Cl)c(C(=O)NC(=O)Nc2ncc(C)s2)cc1N1CCOCC1 | 
4.2 | 103 |  |  |  |  |  | CCOc1cc(Cl)c(C(=O)NC(=O)Nc2ncc(-c3ccccc3)s2)cc1N1CCOCC1 | 
2.6 | 75 |  | 29 (≈ 15.8 µg/mL) | > 50000 | 1900 |  | CCOc1cc(Cl)c(-c2ccc(-c3nc4c(s3)CN(C(=O)COC)CC4)c(=O)[nH]2)cc1N1CCOCC1 | 
3.8 | 19 |  |  |  |  |  | CCOc1cc(Cl)c(C(=O)NC(=O)Nc2nc3ccc(CN4CCN(C)CC4)cc3s2)cc1-n1cccn1 | 
4.3 | 1900 |  | 0.09 (≈ 0.0376 µg/mL) | > 50000 | 12000 |  | CCOc1cc(Cl)c(C(=O)Nc2nc3ccccc3s2)cc1N1CCOCC1 | > 80
> 3.8 | 21 |  | < 0.7 | 1300 | 610 |  | CCOc1cc(Cl)c(-c2ccc(-c3nc4ccccc4s3)c(=O)[nH]2)cc1N1CCOCC1 | 
2.8 | 410 |  | 1.5 (≈ 0.795 µg/mL) | > 50000 | > 11000 |  | CCOc1cc(Cl)c(C(=O)Nc2nc3ccc(CN4CCN(C)CC4)cc3s2)cc1N1CCOCC1 | > 80
3.2 | > 33000 |  | 188 (≈ 105 µg/mL) | > 4970 |  |  | CCOc1cc(Cl)c(CNC(=O)Nc2nc3ccc(CN4CCN(C)CC4)cc3s2)cc1N1CCOCC1 | 

logD [1] | EC50 [2] [nM] | Efficacy [3] [%] | solubility [4] [µM] | IC50 [5] [nM] | EC50 [6] [nM] | Activity [7] | SMILES | Ratio IC50/EC50 (Homo sapiens)
3.9 | 360 |  |  |  |  |  | CCOc1cc(Cl)c(C(=O)NC(=O)Nc2nc3ccc(CN4CCN(C)CC4)cc3s2)cc1-c1ccn[nH]1 | 
2.7 | 54 |  | 95 (≈ 61.8 µg/mL) | 27000 | 660 |  | CCOc1cc(Cl)c(C(=O)Nc2nc3ccc(S(=O)(=O)CCCN4CCN(C)CC4)cc3s2)cc1N1C[C@@H](C)O[C@@H](C)C1 | 500
2.4 | 3600 | 70 |  |  |  |  | CN1CCC(S(=O)(=O)c2ccc3nc(NC(=O)NC(=O)c4cc(-n5cccn5)c(F)cc4Cl)sc3c2)CC1 | 
4 | 22 |  |  |  |  |  | CCOc1cc(Cl)c(C(=O)NC(=O)Nc2nc3ccc(CN4CCN(C)CC4)cc3s2)cc1-n1cccc1 | 
1.7 | 895 |  |  |  |  |  | CCOc1cc(Cl)c(C(=O)NC(=O)Nc2nc3c(s2)CN(C(=O)CO)CC3)cc1N1CCOCC1 | 
4.4 | 260 |  |  |  |  |  | CCOc1cc(Cl)c(C(=O)NC(=O)Nc2cc3ccccc3s2)cc1N1CCOCC1 | 
1.6 | 240 |  | 61 (≈ 38.4 µg/mL) | > 18000 | 1600 |  | CCOc1cc(Cl)c(-c2ncc(-c3nc4ccc(S(=O)(=O)C5CCN(C)CC5)cc4s3)c(=O)[nH]2)cc1N1CCOCC1 | 
2 | 600 |  | 323 (≈ 201 µg/mL) | > 50000 | > 6300 |  | CCOc1cc(Cl)c(C(=O)Nc2nc3ccc(S(=O)(=O)CCCN4CCN(C)CC4)cc3s2)cc1N1CCOCC1 | > 80
2.4 | 160 |  | 470 (≈ 299 µg/mL) | 21000 | 1400 |  | CCOc1cc(Cl)c(C(=O)Nc2nc3ccc(S(=O)(=O)CCCN4CCN(C)CC4)cc3s2)cc1N1CCO[C@H](C)C1 | > 80
2.9 | 74 |  | 4 (≈ 2.29 µg/mL) | 960 | 2160 | Active | CCOc1cc(Cl)c(C(=O)NC(=O)Nc2nc3ccc(CN4CCN(C)CC4)cc3s2)cc1N1CCOCC1 | 
2.5 | > 16000 |  | 492 (≈ 289 µg/mL) | > 50000 |  |  | CCOc1cc(Cl)c(C(=O)N(C)C(=O)Nc2nc3ccc(CN4CCN(C)CC4)cc3s2)cc1N1CCOCC1 | 
3 | 23 |  | 0.2 (≈ 0.121 µg/mL) | 8 | 123 | Active | CCOc1cc(Cl)c(C(=O)NC(=O)Nc2nc3ccc(S(=O)(=O)C4CCN(C)CC4)cc3s2)cc1-n1cccn1 | 
3 | 270 to 350 |  | 155 to 231 (≈ 101 to 150 µg/mL) | 10000 to 14000 | 1400 to 3200 |  | CCOc1cc(Cl)c(C(=O)Nc2nc3ccc(S(=O)(=O)CCCN4CCN(C)CC4)cc3s2)cc1N1C[C@H](C)O[C@@H](C)C1 | > 80
2.3 | 7000 | 74 |  |  |  |  | CN1CCC(S(=O)(=O)c2ccc3nc(NC(=O)NC(=O)c4cc(-n5cccn5)ccc4Cl)sc3c2)CC1 | 
3.3 | 1400 |  |  |  |  |  | CCOc1cc(C(F)(F)F)c(C(=O)NC(=O)Nc2nc3ccc(CN4CCN(C)CC4)cc3s2)cc1N1CCOCC1 | 
2.5 | 740 |  | 1 (≈ 0.579 µg/mL) | > 50000 | > 9000 |  | CCOc1cc(Cl)c(C(=O)Nc2nc3ccc(S(=O)(=O)C4CCN(C)CC4)cc3s2)cc1N1CCOCC1 | > 80
3.3 | 32 |  |  |  |  |  | CCOc1cc(Cl)c(C(=O)NC(=O)Nc2nc3ccc(CN4CCN(C)CC4)cc3s2)cc1N1CCO[C@H](C)C1 | 
3.4 | 5 |  | < 0.5 | 460 | 37 |  | CCOc1cc(Cl)c(-c2ccc(-c3nc4ccc(S(=O)(=O)C5CCN(C)CC5)cc4s3)c(=O)[nH]2)cc1N1CCOCC1 | 
4 | 13 |  |  |  |  |  | CCOc1cc(Cl)c(C(=O)NC(=O)Nc2nc3ccc(CN4CCN(C)CC4)cc3s2)cc1N1CCCC1 | 
